From US9255101B2 (BIOPROJECT, priority 2012, dated 2016)

What was measured:
human H4 receptor = human H4 receptor (Homo sapiens, UniProt Q9H3N8); assay: biochemical;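 also: radioligand displacement of a [3H]-labelled ligand from membranes of CHO cells stably expressing human H4 receptor, bound radioactivity counted on filters by liquid scintillation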

SMILES	melting point	Ki (human H4 receptor)
Cc1c(-c2ccc(N3CCOC3=O)cc2)nc2n1CCc1ccccc1C2OC1CCN(C)CC1 (stereo not shown) [Example 131, 3-{4-[1-methyl-4-(1-methylpiperidin-4-yloxy)-9,10-dihydro-4H-3,10a-diaza-benzo[f]azulen-2-yl]-phenyl}-oxazolidin-2-one]	214 °C	< 300 nM
Cc1c(I)nc2n1CCc1ccccc1C2OC1CCN(C)CC1 (stereo not shown) [Example 133, 2-iodo-1-methyl-4-(1-methylpiperidin-4-yloxy)-9,10-dihydro-4H-3,10a-diaza-benzo[f]azulene]	59 °C	< 300 nM
Cc1c(-c2ccsc2)nc2n1CCc1ccccc1C2OC1CCN(C)CC1 (stereo not shown) [Example 148, 1-methyl-4-(1-methylpiperidin-4-yloxy)-2-thiophen-3-yl-9,10-dihydro-4H-3,10a-diaza-benzo[f]azulene]	74 °C	< 30 nM
COc1ccccc1-c1nc2n(c1C)CCc1ccccc1C2OC1CCN(C)CC1 (stereo not shown) [Example 149, 2-(2-methoxyphenyl)-1-methyl-4-(1-methylpiperidin-4-yloxy)-9,10-dihydro-4H-3,10a-diaza-benzo[f]azulene]	139 °C	< 300 nM
Cc1c(-c2ccc(F)cc2)nc2n1CCc1ccccc1C2OC1CCN(C)CC1 (stereo not shown) [Example 154, 2-(4-fluorophenyl)-1-methyl-4-(1-methylpiperidin-4-yloxy)-9,10-dihydro-4H-3,10a-diaza-benzo[f]azulene]	168 °C	< 30 nM
Cc1c(-c2ccc(Cl)cc2)nc2n1CCc1ccccc1C2OC1CCN(C)CC1 (stereo not shown) [Example 155, 2-(4-chlorophenyl)-1-methyl-4-(1-methylpiperidin-4-yloxy)-9,10-dihydro-4H-3,10a-diaza-benzo[f]azulene]	158 °C	< 30 nM
Cc1ccc(-c2nc3n(c2C)CCc2ccccc2C3OC2CCN(C)CC2)c(Cl)c1 (stereo not shown) [Example 157, 2-(2-chloro-4-methylphenyl)-1-methyl-4-(1-methylpiperidin-4-yloxy)-9,10-dihydro-4H-3,10a-diaza-benzo[f]azulene]	133 °C	< 30 nM
Cc1c(-c2ccc(C3=CCN(C(=O)OC(C)(C)C)CC3)cc2)nc2n1CCc1ccccc1C2OC1CCN(C)CC1 (stereo not shown) [Example 168, 4-{4-[1-methyl-4-(1-methyl-piperidin-4-yloxy)-9,10-dihydro-4H-3,10a-diaza-benzo[f]azulen-2-yl]-phenyl}-3,6-dihydro-2H-pyridine-1-carboxylic acid tert-butyl ester]	171 °C	< 30 nM
Cc1c(C(O)c2ccccc2)nc2n1CCc1ccccc1C2OC1CCN(C)CC1.O=CO (stereo not shown) [Example 201, [1-methyl-4-(1-methylpiperidin-4-yloxy)-9,10-dihydro-4H-3,10a-diaza-benzo[f]azulen-2-yl]phenylmethanol, formic acid salt]	85 °C	< 1000 nM
Cc1c(C(=O)c2ccccc2)nc2n1CCc1ccccc1C2OC1CCN(C)CC1.O=CO (stereo not shown) [Example 202, [1-methyl-4-(1-methylpiperidin-4-yloxy)-9,10-dihydro-4H-3,10a-diaza-benzo[f]azulen-2-yl]phenylmethanone, formic acid salt]	71 °C	< 1000 nM
Cc1c(C(=O)N(C)Cc2ccccc2)nc2n1CCc1ccccc1C2OC1CCN(C)CC1 (stereo not shown) [Example 203, 1-methyl-4-(1-methylpiperidin-4-yloxy)-9,10-dihydro-4H-3,10a-diaza-benzo[f]azulene-2-carboxylic acid benzylmethylamide]	61 °C	< 1000 nM
Cc1c(C(=O)N(C)c2ccccc2)nc2n1CCc1ccccc1C2OC1CCN(C)CC1 (stereo not shown) [Example 204, 1-methyl-4-(1-methylpiperidin-4-yloxy)-9,10-dihydro-4H-3,10a-diaza-benzo[f]azulene-2-carboxylic acid methylphenylamide]	75 °C	< 1000 nM
CCCNC(=O)c1nc2n(c1C)CCc1ccccc1C2OC1CCN(C)CC1 (stereo not shown) [Example 205, 1-methyl-4-(1-methylpiperidin-4-yloxy)-9,10-dihydro-4H-3,10a-diaza-benzo[f]azulene-2-carboxylic acid propylamide]	60 °C	< 1000 nM
CN1CCC(OC2c3ccccc3CCn3c2nc(I)c3C#N)CC1 (stereo not shown) [Example 221, 2-iodo-4-(1-methylpiperidin-4-yloxy)-9,10-dihydro-4H-3,10a-diaza-benzo[f]azulene-1-carbonitrile]	195 °C	< 1000 nM
CN1CCC(OC2c3ccccc3CCn3c2nc(-c2ccc(C(=O)OC(C)(C)C)cc2)c3C#N)CC1 (stereo not shown) [Example 224, 4-[1-cyano-4-(1-methylpiperidin-4-yloxy)-9,10-dihydro-4H-3,10a-diaza-benzo[f]azulen-2-yl]-benzoic acid tert-butyl ester]	95 °C	< 30 nM
CC(C)c1c(-c2ccccc2)nc2n1CCc1ccccc1C2OC1CCN(C)CC1.O=C(O)C(=O)O.O=C(O)C(=O)O (stereo not shown) [Example 243, 1-isopropyl-4-(1-methylpiperidin-4-yloxy)-2-phenyl-9,10-dihydro-4H-3,10a-diaza-benzo[f]azulene dioxalate]	90 °C	< 300 nM

The next lines start with the values.

melting point	Ki (human H4 receptor)	SMILES
130 °C	< 300 nM	CCCNC(=O)Nc1ccc(-c2cn3c(n2)C(OC2CCN(C)CC2)c2ccccc2CC3)cc1 (stereo not shown) [Example 60, 1-{4-[4-(1-methylpiperidin-4-yloxy)-9,10-dihydro-4H-3,10a-diaza-benzo[f]azulen-2-yl]-phenyl}-3-propyl-urea]
85 °C	< 1000 nM	CN1CCC(OC2c3ccccc3CC(C)(C)n3cc(-c4ccccc4)nc32)CC1 (stereo not shown) [Example 230, 10,10-dimethyl-4-(1-methylpiperidin-4-yloxy)-2-phenyl-9,10-dihydro-4H-3,10a-diaza-benzo[f]azulene]
83 °C	< 300 nM	CN1CCC(OC2c3cccc(Br)c3CCn3cc(-c4ccccc4)nc32)CC1 (stereo not shown) [Example 231, 8-Bromo-4-(1-methyl-piperidin-4-yloxy)-2-phenyl-9,10-dihydro-4H-3,10a-diaza-benzo[f]azulene]
66 °C	< 1000 nM	CN1CCC(OC2c3cccc(Cc4ccccc4)c3CCn3cc(-c4ccccc4)nc32)CC1 (stereo not shown) [Example 233, 8-benzyl-4-(1-methylpiperidin-4-yloxy)-2-phenyl-9,10-dihydro-4H-3,10a-diaza-benzo[f]azulene]
134 °C	< 1000 nM	CSc1cccc2c1CCn1cc(-c3ccccc3)nc1C2OC1CCN(C)CC1 (stereo not shown) [Example 234, 4-(1-methylpiperidin-4-yloxy)-8-methylsulfanyl-2-phenyl-9,10-dihydro-4H-3,10a-diaza-benzo[f]azulene]
71 °C	< 300 nM	Cc1cccc2c1CCn1cc(-c3ccccc3)nc1C2OC1CCN(C)CC1 (stereo not shown) [Example 236, 8-methyl-4-(1-methylpiperidin-4-yloxy)-2-phenyl-9,10-dihydro-4H-3,10a-diaza-benzo[f]azulene]
107 °C	< 1000 nM	C=CCCc1cccc2c1CCn1cc(-c3ccccc3)nc1C2OC1CCN(C)CC1.O=C(O)C(=O)O (stereo not shown) [Example 237, 8-but-3-enyl-4-(1-methylpiperidin-4-yloxy)-2-phenyl-9,10-dihydro-4H-3,10a-diaza-benzo[f]azulene, oxalate]
144 °C	< 300 nM	CCCc1c(-c2ccccc2)nc2n1CCc1ccccc1C2OC1CCN(C)CC1 (stereo not shown) [Example 238, 4-(1-methylpiperidin-4-yloxy)-2-phenyl-1-propyl-9,10-dihydro-4H-3,10a-diaza-benzo[f]azulene]
94 °C	< 1000 nM	Cc1ccccc1-c1cccc2c1CCn1cc(-c3ccccc3)nc1C2OC1CCN(C)CC1 (stereo not shown) [Example 239, 4-(1-methylpiperidin-4-yloxy)-2-phenyl-8-o-tolyl-9,10-dihydro-4H-3,10a-diaza-benzo[f]azulene]
95 °C	< 300 nM	CN1CCC(OC2c3cccc(-c4ccc(F)cc4)c3CCn3cc(-c4ccccc4)nc32)CC1 (stereo not shown) [Example 240, 8-(4-fluorophenyl)-4-(1-methylpiperidin-4-yloxy)-2-phenyl-9,10-dihydro-4H-3,10a-diaza-benzo[f]azulene]
93 °C	< 300 nM	COc1cccc(-c2cccc3c2CCn2cc(-c4ccccc4)nc2C3OC2CCN(C)CC2)c1 (stereo not shown) [Example 241, 8-(3-methoxyphenyl)-4-(1-methylpiperidin-4-yloxy)-2-phenyl-9,10-dihydro-4H-3,10a-diaza-benzo[f]azulene]
120 °C	< 1000 nM	CN1CCC(OC2c3cccc(-c4cccc(N)c4)c3CCn3cc(-c4ccccc4)nc32)CC1 (stereo not shown) [Example 242, 3-[4-(1-methylpiperidin-4-yloxy)-2-phenyl-9,10-dihydro-4H-3,10a-diaza-benzo[f]azulen-8-yl]-phenylamine]
189 °C	< 1000 nM	CNc1cccc2c1CCn1cc(-c3ccccc3)nc1C2OC1CCN(C)CC1 (stereo not shown) [Example 244, methyl-[4-(1-methylpiperidin-4-yloxy)-2-phenyl-9,10-dihydro-4H-3,10a-diaza-benzo[f]azulen-8-yl]-amine]
73 °C	< 1000 nM	COc1cccc2c1CCn1cc(-c3ccccc3)nc1C2OC1CCN(C)CC1 (stereo not shown) [Example 245, 8-methoxy-4-(1-methylpiperidin-4-yloxy)-2-phenyl-9,10-dihydro-4H-3,10a-diaza-benzo[f]azulene]
153 °C	< 30 nM	CN1CCC(OC2c3ccccc3CCn3c2nc(-c2ccccc2)c3I)CC1 (stereo not shown) [Example 247, 1-iodo-4-(1-methylpiperidin-4-yloxy)-2-phenyl-9,10-dihydro-4H-3,10a-diaza-benzo[f]azulene]
68 °C	< 1000 nM	CN1CCC(OC2c3cccc(OCc4ccccc4)c3CCn3cc(-c4ccccc4)nc32)CC1 (stereo not shown) [Example 248, 8-benzyloxy-4-(1-methylpiperidin-4-yloxy)-2-phenyl-9,10-dihydro-4H-3,10a-diaza-benzo[f]azulene]
